Test results taken from the NIST ThermoML archive (doi:10.1016/j.fluid.2005.06.017).
Numbers after ± are expanded uncertainties.

Details: Liquid, Ebulliometric method (Recirculating still)

| vapor or sublimation pressure (353.15 K) [kPa] | vapor or sublimation pressure (333.15 K) [kPa] | vapor or sublimation pressure (373.15 K) [kPa] | SMILES |
| --- | --- | --- | --- |
| 86.7 ± 3.1 | – | – | CCC(C)(C)OC [2-methoxy-2-methylbutane] |
| 1.3 | 0.5 | 3.6 ± 3 | CN1CCCC1=O [N-methylpyrrolidone] |
| – | 120.4 ± 3.2 | – | COC(C)(C)C [2-methoxy-2-methylpropane] |
| 74.1 ± 3.1 | – | 135.5 ± 3.1 | CCCOCCC [dipropyl ether] |
